Reference: patent publication US9371336B2, “Compounds for treating spinal muscular atrophy” (PTC Therapeutics Inc., priority 2012, dated 2016)

Experiments:
[1] = system: Smn protein; assay: Smn protein assay (HTRF) in cultured cells (SMA patient fibroblasts GM03813); type: cell-based, human; details: for Smn protein expression: SMA Type 1 patient fibroblast cells, 48 hour, SMN HTRF assay (FIG. 6); for EC1.5x for Smn protein expression: SMA patient fibroblast cells (GM03813), HTRF, 7-point concentration data, concentration producing 1.5 times Smn protein vs DMSO vehicle control; for EC1.5x for Smn protein expression / maximum fold (Fold) increase of Smn protein: 48 hours; for maximum fold (Fold) increase of Smn protein: SMA patient fibroblast cells, 7-point concentration curve, relative to vehicle control
Summary of the method: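 SMA patient fibroblasts (GM03813) were treated 48 h at 37° C with a 7-point, 3.16-fold compound series in triplicate, then lysed in RIPA. Smn was read by HTRF (anti-SMN d2/kryptate, 665/620 nm ratio). ΔF versus blank was divided by vehicle ΔF to give fold Smn increase.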

[2] = system: SMN2 minigene mRNA (SMN2-A minigene construct); assay: SMN2 minigene mRNA splicing RT-qPCR assay in cultured cells; type: cell-based, human; details: for inclusion of exon 7 of SMN2 into mRNA / SMN2 minigene FL mRNA relative to vehicle control: HEK293H cells with SMN2-A minigene, 24 hr; for inclusion of exon 7 of SMN2 into mRNA: relative to untreated cells (FIG. 3); for SMN2 minigene FL mRNA relative to vehicle control: rising concentrations, RT-qPCR (FIG. 3); for EC (1.5-fold): Homo sapiens, HEK293-H, HEK293H cells stably transfected with SMN2-A minigene, 24 hours, 7-point concentration data, concentration giving 1.5-fold SMN2 full length mRNA relative to vehicle-treated cells, read-out: EC1.5x for production of full length SMN2 mRNA
Summary of the method: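 Full-length SMN2 minigene mRNA, measured by exon 7/luciferase-specific RT-qPCR that excludes endogenous SMN1/SMN2, was normalized to GAPDH and expressed relative to vehicle-treated cells via modified ΔΔCt. Stably transfected HEK293H cells received compound (7-point, 3.16-fold series, duplicates) for 24 h at 37 °C.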

Row | melting point | SMILES | Smn protein expression [1] | EC1.5x for Smn protein expression [1] | maximum fold (Fold) increase of Smn protein [1] | inclusion of exon 7 of SMN2 into mRNA [2] | SMN2 minigene FL mRNA relative to vehicle control [2] | EC (1.5-fold) [2]
1 | 258 to 260 °C | CN1CCN(c2ccc3cc(-c4nc5c(Cl)cccc5s4)c(=O)oc3n2)CC1 [Cpd 5, 3-(4-chloro-1,3-benzothiazol-2-yl)-7-(4-methylpiperazin-1-yl)-2H-pyrano[2,3-b]pyridin-2-one] | dose dependent increase in Smn protein expression | *** (an EC1.5× between >0.3 μM and ≦1 μM is indicated by three stars (***)) | **** (a fold increase between >1.5 and ≦1.65 is indicated by four stars (****)) | fully restored exon 7 inclusion | increased SMN2 minigene FL mRNA at low concentrations | 0.1 to 0.3 µM
2 | 260 to 264 °C | Cc1ccc2nc(-c3cc4ccc(N5CCN(C)CC5)nc4oc3=O)cn2c1 [Cpd 27, 3-(6-methylimidazo[1,2-a]pyridin-2-yl)-7-(4-methylpiperazin-1-yl)-2H-pyrano[2,3-b]pyridin-2-one] | dose dependent increase in Smn protein expression | ** (an EC1.5× between >1 and ≦3 μM is indicated by two stars (**)) | **** (a fold increase between >1.5 and ≦1.65 is indicated by four stars (****)) | fully restored exon 7 inclusion | increased SMN2 minigene FL mRNA at low concentrations | 0.1 to 0.3 µM
